The record followed here is patent US7732475B2, “Histone deacetylase inhibitors” (Takeda San Diego, Inc., priority 2005, dated 2010).

Structures are written as SMILES. pIC50: −log10 of the molar value.

The target in this assay is HDAC2 (Homo sapiens, UniProt Q92769). The experiment in a line: HDAC2 fluorescence inhibition assay (tBoc-Lys(Ac)-AMC).
Chain of HDAC2 (Q92769 with tags, fused parts or gaps): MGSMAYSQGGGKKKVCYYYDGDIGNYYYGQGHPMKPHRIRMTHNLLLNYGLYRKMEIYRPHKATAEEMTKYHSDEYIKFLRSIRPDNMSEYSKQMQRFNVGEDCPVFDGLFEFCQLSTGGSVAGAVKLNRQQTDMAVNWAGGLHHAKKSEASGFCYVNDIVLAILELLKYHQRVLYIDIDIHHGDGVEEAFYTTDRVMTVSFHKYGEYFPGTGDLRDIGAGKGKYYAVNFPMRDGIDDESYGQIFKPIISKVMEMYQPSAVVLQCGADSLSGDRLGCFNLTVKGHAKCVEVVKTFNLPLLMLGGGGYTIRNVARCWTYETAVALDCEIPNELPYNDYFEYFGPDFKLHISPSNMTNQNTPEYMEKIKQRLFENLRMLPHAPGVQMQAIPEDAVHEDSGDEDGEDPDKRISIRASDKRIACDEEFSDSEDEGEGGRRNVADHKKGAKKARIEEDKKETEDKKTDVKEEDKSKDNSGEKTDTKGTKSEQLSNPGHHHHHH
As to `COCCCNC(=O)c1cnn(Cc2ccc(C(=O)Nc3ccccc3N)cc2)c1` [Example 152, 1-(4-(2-aminophenylcarbamoyl)benzyl)-N-(3-methoxypropyl)-1H-pyrazole-4-carboxamide], the negative logarithm of the IC50 (pIC50) (usually the IC50 on a negative log10 scale, so that one unit is a factor of ten) was no less than 7.30.
Consider `Nc1ccccc1NC(=O)c1ccc(Cn2cc(C(=O)NCCCO)cn2)cc1` [Example 153, 1-(4-(2-aminophenylcarbamoyl)benzyl)-N-(3-hydroxypropyl)-1H-pyrazole-4-carboxamide], for which the pIC50 is no less than 7.30.
The molecule `Nc1ccccc1NC(=O)c1ccc(Cn2cc(C(=O)NCCCN3CCOCC3)cn2)cc1` [Example 154, 1-(4-(2-aminophenylcarbamoyl)benzyl)-N-(3-morpholinopropyl)-1H-pyrazole-4-carboxamide] showed a pIC50 of no less than 7.30.
As for `Nc1ccccc1NC(=O)c1ccc(Cn2cc(C(=O)NCCN3CCCCC3)cn2)cc1` [Example 155, 1-(4-(2-aminophenylcarbamoyl)benzyl)-N-(2-(piperidin-1-yl)ethyl)-1H-pyrazole-4-carboxamide], the figure is no less than 7.30; as for `CN1CCN(CCCNC(=O)c2cnn(Cc3ccc(C(=O)Nc4ccccc4N)cc3)c2)CC1` [Example 156, 1-(4-(2-aminophenylcarbamoyl)benzyl)-N-(3-(4-methylpiperazin-1-yl)propyl)-1H-pyrazole-4-carboxamide], 7.00 to 7.30; as for `Nc1ccccc1NC(=O)c1ccc(Cn2ccc3cccnc32)cc1` [Example 157, 4-((1H-Pyrrolo[2,3-b]pyridin-1-yl)methyl)-N-(2-aminophenyl)benzamide], 6.30 to 7.00.
`Nc1ccccc1NC(=O)c1ccc(Cc2c[nH]c3ccccc23)cc1` [Example 158, 4-((1H-Indol-3-yl)methyl)-N-(2-aminophenyl)benzamide] had a pIC50 of 7.00 to 7.30.
